Measurements: patent US8460932B2, “Method of treating a disorder by suicide gene therapy” (priority 1999, dated 2013)

Test system: brains of rodents
Assay: Expression, distribution and longevity of transgene in brain after intrastriatal vector injection (immunohistochemistry)
Type: in vivo, Lewis rat
Conditions: GCV 25 mg/kg i.p. twice daily for 7 days vs saline after RAd 128; 1 month to 1 year
Protocol: UK. […] Antibodies were diluted in 1% NHS in TBS.
Groups of animals were then perfused 1 month, 3 months, 5 months, or 12 months later. Animals were perfusion-fixed and brains were cut in serial sections.
To assess the effects of HSV-1 TK on the expression another transgene, lacZ, a combination of either RAd TK+RAd HPRT or RAd 35+RAd HPRT or RAd 35+RAd TK was injected into the mid striatum of 9 rats (3 rats per group). The total vector dose was 8×10^7 iu (i.e. 4×10^7 iu per vector).

## Nc1nc(O)c2ncn(COC(CO)CO)c2n1 [GCV, ganciclovir]
  Effect on the maintenance of HSV1-TK immunoreactivity in the rodent brain: no effect
